Data set [1] is described as follows: Octanol–water partition coefficient, shake-flask method (OECD Test No. 107). The format is physicochemical. To be noted: shake-flask, 25 °C, 24 h, average of six results; read-out: Octanol-water partition coefficient (log Kow). The procedure: The octanol–water partition coefficients (KOW) of the synthesized products were estimated by the shake-flask method according to the OECD Test No. 107 guidelines (Partition Coefficient n-Octanol/Water: Shake-Flask Method). Measurements were performed using mutually saturated distilled water and 1-octanol in a glass vial containing a magnetic stir bar. First, the synthesized products were dissolved in distilled water (or 1-octanol) at a chosen concentration (0.01 mol per 1 L of octanol or water), and then proper amounts of the second solvent (octanol or water) were added. Subsequently, two duplicate runs were carried out with different solvent ratios: 4 mL of 1-octanol and 2 mL of water (2:1), 4 mL of 1-octanol and 4 mL of water (1:1), and 4 mL of 1-octanol and 8 mL of water ([…]). All vials were shaken at a constant temperature of 25 °C. After 24 h, all samples were centrifuged and the aqueous and octanolic phases were collected with a syringe. The concentrations of compounds in water were determined spectrophotometrically using a Rayleigh UV-1601 spectrophotometer (Beijing Beifen-Ruili Analytical, China) based on calibration curves made previously (at λmax = 262 nm) vs concentration for each substance. Two repetitions of each measurement were performed in a specific solvent ratio (1:1, 1:2, and 2:1). Finally, the log KOW was calculated as the average of six results collected for each compound.
The outermost layer of the skin (stratum corneum) contains around […] water, a relatively low amount compared to the rest of the human body. Given the hydrophobic nature of 1-octanol, it can be used as a simplified model for the stratum corneum.[50] The octanol–water partition coefficient (KOW) value represents the proportion between the concentrations of a substance in both liquid phases of a system composed of water and 1-octanol. […] The log KOW values are given in Figure 6 (exact values are provided in Table S4, Supporting Information).

For data set [2], the system named is Staphylococcus epidermidis. The experiment in a line: MIC and MBC determination, microdilution method. The format is cell-based. Here is the method: (§1) The antimicrobial activities of the compounds were tested against clinical strains of an aerobic Gram-negative bacterium—Pseudomonas aeruginosa (P. aeruginosa), facultative anaerobic Gram-positive bacteria—Staphylococcus aureus (S. aureus) and Staphylococcus epidermidis (S. epidermidis), anaerobic Gram-positive bacterium—Cutibacterium acnes (C. acnes), and yeast-like fungus—Candida albicans (C. albicans).
(§2) Aerobic and facultative anaerobic bacteria cultures were grown in Brain Heart Infusion broth (BHI, bioMerieux, France) at 35 °C ± 1 °C for 18 h, C. acnes cultures were grown in thioglycolate broth with resazurin (TGB, bioMerieux, France) at 35 ± 1 °C for 48 h, and yeast cultures were grown in Sabouraud dextrose broth (SDB, Merck, Germany) at 35 ± 1 °C for 24 h. After incubation, each culture was diluted in a suitable liquid medium: P. aeruginosa, S. aureus, and S. epidermidis—Mueller–Hinton broth (MHB; Oxoid, UK); C. acnes—TGB; and C. albicans—SDB, to obtain a final suspension containing about 10^6 CFU/mL.
(§3) The microdilution method was employed to determine the compounds’ MIC (Minimal Inhibitory Concentration) and MBC/MFC (Minimal Bactericidal Concentration/Minimal Fungicidal Concentration) against the tested bacterial and fungal strains.
(§4) The compounds were serially diluted (2-fold) in the respective media (P. aeruginosa, S. aureus, and S. epidermidis—MHB, C. acnes—TGB, and C. albicans—SDB in 96-well plates), and the microbial suspensions were added. The compounds were tested in the final concentration range of 4 096 to 0.125 μg/mL, and the final microbial inoculum was approximately 5 ×10^5 CFU/mL. The tests were incubated at 35 °C ± 1 °C for 18 h (P. aeruginosa, S. aureus, and S. epidermidis) or 24 h (C. albicans) or 48 h (C. acnes). C. acnes was incubated in an anaerobic atmosphere using a GENbag anaer (bioMerieux, France). Media (without the strains) added to the different concentrations of tested compounds and media inoculated with microbial suspension were used as a negative control and growth control, respectively.
(§5) The MIC was defined as the lowest concentration at which visible growth was inhibited. MBC and MFC concentrations were determined as an extension of the MIC test. […] The plates were incubated at 35 ± 1 °C for 18–72 h. C. acnes was incubated in an anaerobic atmosphere. The MBC/MFC was defined as the lowest concentration at which no growth was observed. All tests were performed in duplicate.

The test system of data set [3] is Staphylococcus aureus. The experiment in a line: MIC and MBC determination, microdilution method. The format is cell-based. Here is the method:
as §1, §2, §3, §4, §5

Data set [4] concerns Cutibacterium acnes. The experiment in a line: MIC and MBC determination, microdilution method. The following applies: Cutibacterium acnes. The format is cell-based. Here is the method: as §1, §2, §3, §4, §5
For orientation: Broth dilution looks for growth in wells or tubes with falling amounts of substance.

Data set [5] deals with Pseudomonas aeruginosa. The experiment in a line: MIC and MBC determination, microdilution method. The data set is classed as cell-based. Here is the method:
as §1, §2, §3, §4, §5

Data set [6] concerns cyclooxygenase-2 (PDB ID: 1CX2). The experiment in a line: Molecular docking (AutoDock4). The following applies: from docking IC50 values.
Procedure: Docking studies were performed using the AutoDock4 program in AutoDockTools 1.5.7.[28] The structures for ligands (reference substances and N-alkylnicotinamide cations) were optimized for energy minimization using the MMFF94 force field in Avogadro 1.2.0 with the steepest descent algorithm and subsequently converted to a PDBQT format using OpenBabelGUI. The three-dimensional structure of target cyclooxygenase-2 (Protein Data Bank ID: 1CX2) was retrieved from Protein Data Bank (http://www.pdb.org) with a resolution of 3.00 Å. The protein molecule 1CX2 was prepared using AutoDockTools version 1.5.7. The preparation process involved checking for missing atoms, repairing any missing atoms, adding polar hydrogens and Kollman charges, and distributing charges over all of the atoms on residues. All cocrystallized compounds present in the 1CX2 structure (including water molecules and the ligand) were removed prior to the calculations. […] The interaction between the ligand and receptor and hydrogen bond lengths were analyzed using AutoDockTools and PLIP (Protein Ligand Interaction Profiler) developed by Biotechnology Center TU Dresden (BIOTEC).
The nature of data set [7]: Solubility in PBS. To be noted: Pharmacopeia solubility class, PBS pH 7.4, 25 °C. Here is the method: The solubility in PBS solution was determined by placing 1 g (±0.0001) of tested compound in a round-bottom flask and adding specific parts of the PBS solution in portions until full dissolution. The samples were vigorously stirred for at least 5 min before the addition of the next portion of PBS, and the systems were thermostated at 25 °C. Three repetitions of the measurement were performed for each of the compounds.
Most studies on the solubility of novel APIs are carried out with pure water, aqueous PBS solutions were much more preferred due to their higher similarity to intra- and intercellular media in epidermis, while envisaging their use in transdermal delivery and skin care applications.[60] […] The collected data are presented in Figure 8 (as well as in Table S6 in the Supporting Information).

The subject of data set [8] is Candida albicans. The experiment in a line: MIC and MFC determination, microdilution method. The data set is classed as cell-based. Here is the method: as §1, §2, §3, §4, §5
For data set [9], the system named is Artemia franciscana. The experiment in a line: Ecotoxicity toward aquatic life, Artoxkit M immobilization test. The format is in vivo. To be noted: for EC50: Artemia franciscana. Here is the method:
To determine the EC50 parameter for compounds, tests were carried out on marine crustaceans—Artemia franciscana (A. franciscana). The methodology proposed in the Artoxkit M test (MicroBioTests Inc., Gent, Belgium) was developed according to the ASTM E1440-91 standard.
The hatching process was started first. For this purpose, 50 mg of cysts was transferred to the Petri dishes attached to the Artoxkit M set, which were then immersed in 10 mL of artificial seawater with a salinity of 35‰ (a medium for the development of the tested organisms, as well as a solvent for preparing solutions of the tested compounds) and placed at a temperature of 25 °C, with access to light (6000–10,000 lux) for 30 h. Then, 2 h before placing them on the Artoxkit M plates, 20 mg of spirulina was added to cultured artemias. In addition, 1 h before the analysis, the used seawater was oxygenated by passing a stream of air through the solution. To each of the four cells in a given row of a plate from the Artoxkit M kit, 1 mL of solution at the specified concentrations (or the appropriate medium in the case of a control) were introduced. In the first column of cells (a control sample and five selected concentrations), no less than 30 artemias were placed from previously prepared Petri dishes. Then, from the first cell in the first column, artemias were collected at the selected concentration and added to the next three cells in the selected row, 10 organisms per cell. After the organisms were introduced into the appropriate cells, the plates were covered with Parafilm and then closed with a plastic cap. The prepared kit was incubated at 25 °C and protected from light. Number of motionless organisms were counted after 24 and 48 h. Immobilization was then calculated (eq 1) in relation to the number of organisms at the start of the test: [drawing 1] 1
Next, the dependence between the effect and concentration of the tested compounds was plotted, and on this basis, an EC50 value was determined.

Like-named read-outs stand apart in the source and are kept apart here.

Usually MIC stands for the lowest concentration that inhibits growth of the organism. By MBC is commonly meant the lowest tested concentration that kills the bacteria rather than only halting them. As usually defined, the MFC is the lowest tested concentration that kills the fungus rather than only halting it. For `CCCCCCCCCCCC[n+]1cccc(C(N)=O)c1.O=C([O-])c1ccccc1O` [compound 6], the logP at 24 h in [1] was determined as 0.6. The MIC in data set [2] (18 h, read-out: MIC, S. epidermidis) was found to be 256 µg/mL; in [3] (18 h, read-out: MIC, S. aureus) it was 8 µg/mL; in [4] (48 h, read-out: MIC, C. acnes) it was 64 µg/mL; in [5] (18 h, read-out: MIC, P. aeruginosa), 256 µg/mL; in data set [8] (24 h, read-out: MIC, C. albicans) it was 256 µg/mL. In addition, the MBC was 256 µg/mL in data set [2] (read-out: MBC, S. epidermidis); 8 µg/mL in data set [3] (read-out: MBC, S. aureus); 64 µg/mL in [4] (read-out: MBC, C. acnes); 256 µg/mL in [5] (read-out: MBC, P. aeruginosa). In data set [6], the “times more potent than NA itself” value is 125 times. For the same compound, the “Solubility in PBS, Class” value in data set [7] is given as “Very Slightly Soluble (1000-10 000)”. In data set [8] (read-out: MFC, C. albicans), the minimal fungicidal concentration (MFC) came out at 256 µg/mL. Moreover, the EC50 in [9] (immobilization, motionless organisms counted after 24 and 48 h, 25 °C, read-out: EC50) is 89.7 µg/mL; in data set [9] (toxicity range of EC50, read-out: Range) it was 10 to 100 µg/mL. The Class entry in data set [9] (acute toxicity rating scale by Fish and Wildlife Service) was “Slightly Toxic (10-100)”.

These data come from PMC11372839, “Unraveling the Potential of Vitamin B3-Derived Salts with a Salicylate Anion as Dermal Active Agents for Acne Treatment” (Molecular Pharmaceutics, 2024).
